# Tests used:
# Assay in all cases: relative viability (nuclei count vs DMSO), 5 days (fraction); higher = more cells survive
# AGI-6780 + Pictilisib = compound: O=C(Nc1cccc(C(F)(F)F)c1)Nc1cc(S(=O)(=O)NC2CC2)ccc1-c1ccsc1 [AGI-6780] + CS(=O)(=O)N1CCN(Cc2cc3nc(-c4cccc5[nH]ncc45)nc(N4CCOCC4)c3s2)CC1 [Pictilisib] (partner 1 µM)
# How it was run: (§1)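 Lung cancer cell lines were seeded in 1536-well plates and dosed by pin tool the next day, with either a single drug or a fixed anchor-drug dose combined with five library-drug doses (not always all listed) spaced in √10 steps. Five days later, one step fixed the cells and stained their nuclei (final 0.05% Triton X-100, 1% formaldehyde, 1 ug/ml Hoechst), and nuclei were counted on 4× images. Relative viability is the nuclei count in treated wells divided by the count in vehicle wells, and each value is the median of duplicate plates.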
# AGI-6780 + Navitoclax = compound: O=C(Nc1cccc(C(F)(F)F)c1)Nc1cc(S(=O)(=O)NC2CC2)ccc1-c1ccsc1 [AGI-6780] + CC1(C)CCC(c2ccc(Cl)cc2)=C(CN2CCN(c3ccc(C(=O)NS(=O)(=O)c4ccc(N[C@H](CCN5CCOCC5)CSc5ccccc5)c(S(=O)(=O)C(F)(F)F)c4)cc3)CC2)C1 [Navitoclax] (partner 0.5 µM)
# How it was run: as §1
# AGI-6780 + Bortezomib = compound: O=C(Nc1cccc(C(F)(F)F)c1)Nc1cc(S(=O)(=O)NC2CC2)ccc1-c1ccsc1 [AGI-6780] + CC(C)C[C@H](NC(=O)[C@H](Cc1ccccc1)NC(=O)c1cnccn1)B(O)O [Bortezomib] (partner 0.002 µM)
# How it was run: as §1
# AGI-6780 + Linsitinib = compound: O=C(Nc1cccc(C(F)(F)F)c1)Nc1cc(S(=O)(=O)NC2CC2)ccc1-c1ccsc1 [AGI-6780] + C[C@]1(O)C[C@@H](c2nc(-c3ccc4ccc(-c5ccccc5)nc4c3)c3c(N)nccn32)C1 [Linsitinib] (partner 1 µM)
# How it was run: as §1
# AGI-6780 + Olaparib = compound: O=C(Nc1cccc(C(F)(F)F)c1)Nc1cc(S(=O)(=O)NC2CC2)ccc1-c1ccsc1 [AGI-6780] + O=C(c1cc(Cc2n[nH]c(=O)c3ccccc23)ccc1F)N1CCN(C(=O)C2CC2)CC1 [Olaparib] (partner 8 µM)
# How it was run: as §1
# AGI-6780 + Crizotinib = compound: O=C(Nc1cccc(C(F)(F)F)c1)Nc1cc(S(=O)(=O)NC2CC2)ccc1-c1ccsc1 [AGI-6780] + C[C@@H](Oc1cc(-c2cnn(C3CCNCC3)c2)cnc1N)c1c(Cl)ccc(F)c1Cl [Crizotinib] (partner 1 µM)
# How it was run: as §1
# AGI-6780 + Foretinib = compound: O=C(Nc1cccc(C(F)(F)F)c1)Nc1cc(S(=O)(=O)NC2CC2)ccc1-c1ccsc1 [AGI-6780] + COc1cc2c(Oc3ccc(NC(=O)C4(C(=O)Nc5ccc(F)cc5)CC4)cc3F)ccnc2cc1OCCCN1CCOCC1 [Foretinib] (partner 0.25 µM)
# How it was run: as §1
# AGI-6780 + Alpelisib = compound: O=C(Nc1cccc(C(F)(F)F)c1)Nc1cc(S(=O)(=O)NC2CC2)ccc1-c1ccsc1 [AGI-6780] + Cc1nc(NC(=O)N2CCC[C@H]2C(N)=O)sc1-c1ccnc(C(C)(C)C(F)(F)F)c1 [Alpelisib] (partner 2 µM)
# How it was run: as §1
# AGI-6780 + Lapatinib = compound: O=C(Nc1cccc(C(F)(F)F)c1)Nc1cc(S(=O)(=O)NC2CC2)ccc1-c1ccsc1 [AGI-6780] + CS(=O)(=O)CCNCc1ccc(-c2ccc3ncnc(Nc4ccc(OCc5cccc(F)c5)c(Cl)c4)c3c2)o1 [Lapatinib] (partner 2 µM)
# How it was run: as §1
# AGI-6780 = compound: O=C(Nc1cccc(C(F)(F)F)c1)Nc1cc(S(=O)(=O)NC2CC2)ccc1-c1ccsc1 [AGI-6780]
# How it was run: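 Five library-drug doses, separated by factors of √10, were pinned into 1536-well plates holding lung cancer cell lines after an overnight stay at 37 °C. Cells were fixed, permeabilised and Hoechst-stained in one step after 5 days without medium change, then imaged at 4×. Viability compares treated-well with vehicle-well nuclei, counted in MetaXpress, as a median across plates. Passing plates had control CV below 25% and at least one doubling.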
cell line,measurement,setting,value
Calu-6,relative viability,AGI-6780 + Pictilisib; first compound 0.08 µM,0.996
same,relative viability,AGI-6780 + Pictilisib; first compound 0.253 µM,0.891
same,relative viability,AGI-6780 + Pictilisib; first compound 0.8 µM,0.929
same,relative viability,AGI-6780 + Pictilisib; first compound 2.53 µM,0.908
same,relative viability,AGI-6780 + Pictilisib; first compound 8 µM,0.937
same,relative viability,AGI-6780 + Navitoclax; first compound 0.08 µM,0.948
same,relative viability,AGI-6780 + Navitoclax; first compound 0.253 µM,0.815
same,relative viability,AGI-6780 + Navitoclax; first compound 0.8 µM,0.846
same,relative viability,AGI-6780 + Navitoclax; first compound 2.53 µM,0.833
same,relative viability,AGI-6780 + Navitoclax; first compound 8 µM,0.891
same,relative viability,AGI-6780 + Bortezomib; first compound 0.08 µM,1.12
same,relative viability,AGI-6780 + Bortezomib; first compound 0.253 µM,0.976
same,relative viability,AGI-6780 + Bortezomib; first compound 0.8 µM,1.02
same,relative viability,AGI-6780 + Bortezomib; first compound 2.53 µM,1.12
same,relative viability,AGI-6780 + Bortezomib; first compound 8 µM,0.972
same,relative viability,AGI-6780 + Linsitinib; first compound 0.08 µM,0.984
same,relative viability,AGI-6780 + Linsitinib; first compound 0.253 µM,1.02
same,relative viability,AGI-6780 + Linsitinib; first compound 0.8 µM,0.897
same,relative viability,AGI-6780 + Linsitinib; first compound 2.53 µM,0.852
same,relative viability,AGI-6780 + Linsitinib; first compound 8 µM,0.955
same,relative viability,AGI-6780 + Olaparib; first compound 0.08 µM,0.598
same,relative viability,AGI-6780 + Olaparib; first compound 0.253 µM,0.601
same,relative viability,AGI-6780 + Olaparib; first compound 0.8 µM,0.584
same,relative viability,AGI-6780 + Olaparib; first compound 2.53 µM,0.559
same,relative viability,AGI-6780 + Olaparib; first compound 8 µM,0.543
same,relative viability,AGI-6780 + Crizotinib; first compound 0.08 µM,0.822
same,relative viability,AGI-6780 + Crizotinib; first compound 0.253 µM,0.829
same,relative viability,AGI-6780 + Crizotinib; first compound 0.8 µM,0.948
same,relative viability,AGI-6780 + Crizotinib; first compound 2.53 µM,0.824
same,relative viability,AGI-6780 + Crizotinib; first compound 8 µM,0.752
same,relative viability,AGI-6780 + Foretinib; first compound 0.08 µM,0.88
same,relative viability,AGI-6780 + Foretinib; first compound 0.253 µM,0.871
same,relative viability,AGI-6780 + Foretinib; first compound 0.8 µM,0.96
same,relative viability,AGI-6780 + Foretinib; first compound 2.53 µM,0.89
same,relative viability,AGI-6780 + Foretinib; first compound 8 µM,0.885
same,relative viability,AGI-6780 + Alpelisib; first compound 0.08 µM,1.01
same,relative viability,AGI-6780 + Alpelisib; first compound 0.253 µM,0.977
same,relative viability,AGI-6780 + Alpelisib; first compound 0.8 µM,0.97
same,relative viability,AGI-6780 + Alpelisib; first compound 2.53 µM,0.945
same,relative viability,AGI-6780 + Alpelisib; first compound 8 µM,1.04
same,relative viability,AGI-6780 + Lapatinib; first compound 0.08 µM,0.989
same,relative viability,AGI-6780 + Lapatinib; first compound 0.253 µM,1.01
same,relative viability,AGI-6780 + Lapatinib; first compound 0.8 µM,1.22
same,relative viability,AGI-6780 + Lapatinib; first compound 2.53 µM,1.14
same,relative viability,AGI-6780 + Lapatinib; first compound 8 µM,0.974
same,relative viability,AGI-6780; 0.08 µM,1.03
same,relative viability,AGI-6780; 0.253 µM,1.01
same,relative viability,AGI-6780; 0.8 µM,1.07
same,relative viability,AGI-6780; 2.53 µM,0.993
same,relative viability,AGI-6780; 8 µM,1.03
EBC-1,relative viability,AGI-6780 + Pictilisib; first compound 0.08 µM,0.388
same,relative viability,AGI-6780 + Pictilisib; first compound 0.253 µM,0.337
same,relative viability,AGI-6780 + Pictilisib; first compound 0.8 µM,0.343
same,relative viability,AGI-6780 + Pictilisib; first compound 2.53 µM,0.379
same,relative viability,AGI-6780 + Pictilisib; first compound 8 µM,0.347
same,relative viability,AGI-6780 + Navitoclax; first compound 0.08 µM,0.407
same,relative viability,AGI-6780 + Navitoclax; first compound 0.253 µM,0.429
same,relative viability,AGI-6780 + Navitoclax; first compound 0.8 µM,0.365
same,relative viability,AGI-6780 + Navitoclax; first compound 2.53 µM,0.512
same,relative viability,AGI-6780 + Navitoclax; first compound 8 µM,0.38
same,relative viability,AGI-6780 + Bortezomib; first compound 0.08 µM,0.781
same,relative viability,AGI-6780 + Bortezomib; first compound 0.253 µM,0.566
same,relative viability,AGI-6780 + Bortezomib; first compound 0.8 µM,0.485
same,relative viability,AGI-6780 + Bortezomib; first compound 2.53 µM,0.601
same,relative viability,AGI-6780 + Bortezomib; first compound 8 µM,0.529
same,relative viability,AGI-6780 + Linsitinib; first compound 0.08 µM,0.861
same,relative viability,AGI-6780 + Linsitinib; first compound 0.253 µM,1.13
same,relative viability,AGI-6780 + Linsitinib; first compound 0.8 µM,0.885
same,relative viability,AGI-6780 + Linsitinib; first compound 2.53 µM,0.836
same,relative viability,AGI-6780 + Linsitinib; first compound 8 µM,0.94
same,relative viability,AGI-6780 + Olaparib; first compound 0.08 µM,0.788
same,relative viability,AGI-6780 + Olaparib; first compound 0.253 µM,0.789
same,relative viability,AGI-6780 + Olaparib; first compound 0.8 µM,0.664
same,relative viability,AGI-6780 + Olaparib; first compound 2.53 µM,0.655
same,relative viability,AGI-6780 + Olaparib; first compound 8 µM,0.747
same,relative viability,AGI-6780 + Crizotinib; first compound 0.08 µM,0.199
same,relative viability,AGI-6780 + Crizotinib; first compound 0.253 µM,0.184
same,relative viability,AGI-6780 + Crizotinib; first compound 0.8 µM,0.186
same,relative viability,AGI-6780 + Crizotinib; first compound 2.53 µM,0.175
same,relative viability,AGI-6780 + Crizotinib; first compound 8 µM,0.183
same,relative viability,AGI-6780 + Foretinib; first compound 0.08 µM,0.104
same,relative viability,AGI-6780 + Foretinib; first compound 0.253 µM,0.105
same,relative viability,AGI-6780 + Foretinib; first compound 0.8 µM,0.106
same,relative viability,AGI-6780 + Foretinib; first compound 2.53 µM,0.11
same,relative viability,AGI-6780 + Foretinib; first compound 8 µM,0.104
same,relative viability,AGI-6780 + Alpelisib; first compound 0.08 µM,0.965
same,relative viability,AGI-6780 + Alpelisib; first compound 0.253 µM,0.923
same,relative viability,AGI-6780 + Alpelisib; first compound 0.8 µM,0.798
same,relative viability,AGI-6780 + Alpelisib; first compound 2.53 µM,0.783
same,relative viability,AGI-6780 + Alpelisib; first compound 8 µM,0.841
same,relative viability,AGI-6780 + Lapatinib; first compound 0.08 µM,0.224
same,relative viability,AGI-6780 + Lapatinib; first compound 0.253 µM,0.21
same,relative viability,AGI-6780 + Lapatinib; first compound 0.8 µM,0.198
same,relative viability,AGI-6780 + Lapatinib; first compound 2.53 µM,0.202
same,relative viability,AGI-6780 + Lapatinib; first compound 8 µM,0.201
same,relative viability,AGI-6780; 0.08 µM,1.07
same,relative viability,AGI-6780; 0.253 µM,1.04
same,relative viability,AGI-6780; 0.8 µM,0.985
same,relative viability,AGI-6780; 2.53 µM,1
same,relative viability,AGI-6780; 8 µM,1

# — the supplement of paper PMC10307832
